Consider one substance from patent US20060094003A1, “Acetylcholine-dependent current as a novel ionic target for atrial fibrillation” (priority 2004, published 2006).

Broadly, the IC50 is the concentration at which inhibition is half-maximal.

Values joined by “and” are separate entries in the source; they are usually repeats but may differ in a detail not shown here. Identical values can stand only once.

The subject of data set [1] is IKH. It is filed as cell-based, canine. The procedure: (§1) Adult mongrel dogs of either sex (weighing about 20-35 kg) were anaesthetized with pentobarbital (30 mg kg^−1 I.V.) and artificially ventilated with room air. Hearts and adjacent lung tissue were relatively quickly excised through a left lateral thoracotomy and immersed in oxygenated Tyrode solution (composition detailed hereinbelow) at room temperature. […] A left atrial (LA) preparation with the PVs intact was perfused via the left circumflex coronary artery, and subjected to either standard fine-tipped microelectrode recording of action potentials (APs) or cardiomyocyte isolation with collagenase-containing solutions, as previously described (Ehrlich et al. 2003). Six dogs were subjected to atrial tachycardia-induced remodeling induced by 1 week of atrial pacing at about 400 beats min^−1 after ablation of the AV node, as described in Li et al. 1999. Animal care and handling procedures followed the guidelines of the Canadian Council on Animal Care.
To isolate LA and PV cardiomyocytes, the proximal circumflex artery was cannulated and the distal ends of PV myocardial sleeves (approximately 1-1.5 cm from the PV-LA junction) were marked with silk thread prior to subsequent enzyme perfusion with collagenase (100 U ml^−1, Worthington, type II), in order to facilitate localization of PV sleeves after enzymatic digestion. […] All comparisons were based on PV and LA cardiomyocytes isolated from each dog on each experimental day. After isolation, cells were stored at 4° C. and studied on the same day. For standard microelectrode experiments, intact tissue preparations including the LA and adjacent PVs were mounted in a chamber and perfused via the circumflex artery with oxygenated Krebs solution at 36±0.5° C. (see for example Kneller et al. 2002).
Currents were recorded with the whole-cell patch-clamp technique at 36±0.5° C., as described in Yue et al. 1996. All junction potentials were zeroed prior to formation of gigaohm seals. […] Capacitance was assessed using 5 mV, 10 ms hyperpolarizing steps from a holding potential (HP) of −60 mV. […] Original recordings are shown in terms of current amplitude, but mean data are presented as current density (pA pF−1) to control for variability in cell size.
Currents were recorded with hyperpolarizing and depolarizing pulses (generally 4 s duration) from a HP of −40 mV to selected test potentials (TPs). Recordings were repeated 3 times, and mean values obtained. For the determination of reversal potentials, tail currents were recorded after 1.6 s pulses to −120 mV followed by 3.2 s depolarizations to TPs between −110 and +20. All voltage protocols were delivered at 0.1 Hz.
Tyrode solution contained (mM): NaCl 136, KCl 5.4, MgCl2 1, CaCl2 1, NaH2PO4 0.33, Hepes 5 and dextrose 10 (pH 7.35 with NaOH). The cell-storage solution contained (mM): KCl 20, KH2PO4 10, dextrose 10, mannitol 40, L-glutamic acid 70, β-OH-butyric acid 10, taurine 20, EGTA 10 and 0.1% bovine serum albumin (pH 7.3, KOH). Nifedipine (5 μM) was used to suppress L-type Ca^2+ current (ICa) in all experiments. 4-Aminopyridine (4-AP, 2 mM) was added to suppress transient outward current (Ito). […] Na+ current (INa) contamination was avoided by using a HP of −40 mV for recording of hyperpolarization-induced currents and by substitution of equimolar Tris-HCl for external NaCl for tail-current recordings.

The subject of data set [2] is instantaneous inward-rectifier current. The experiment in a line: Whole-cell patch-clamp of instantaneous inward-rectifier current in canine cardiomyocytes. It is filed as cell-based. Particulars: 1 μM tertiapin-Q; not statistically significant. The protocol: as §1
To isolate LA and PV cardiomyocytes, the proximal circumflex artery was cannulated and the distal ends of PV myocardial sleeves (approximately 1-1.5 cm from the PV-LA junction) were marked with silk thread prior to subsequent enzyme perfusion with collagenase (100 U ml^−1, Worthington, type II), in order to facilitate localization of PV sleeves after enzymatic digestion. […] All comparisons were based on PV and LA cardiomyocytes isolated from each dog on each experimental day. After isolation, cells were stored at 4° C. and studied on the same day. […]
Currents were recorded with the whole-cell patch-clamp technique at 36±0.5° C., as described in Yue et al. 1996. […] Capacitance was assessed using 5 mV, 10 ms hyperpolarizing steps from a holding potential (HP) of −60 mV. […]
Currents were recorded with hyperpolarizing and depolarizing pulses (generally 4 s duration) from a HP of −40 mV to selected test potentials (TPs). […] For the determination of reversal potentials, tail currents were recorded after 1.6 s pulses to −120 mV followed by 3.2 s depolarizations to TPs between −110 and +20. […]
Background: Patch clamp records ionic current or voltage across a cell membrane.

Data set [3] has as its target T1, Kir 3.1/3.4 currents (Homo sapiens, UniProt P48544+P48549).
T1 sequence (P48549 1-501): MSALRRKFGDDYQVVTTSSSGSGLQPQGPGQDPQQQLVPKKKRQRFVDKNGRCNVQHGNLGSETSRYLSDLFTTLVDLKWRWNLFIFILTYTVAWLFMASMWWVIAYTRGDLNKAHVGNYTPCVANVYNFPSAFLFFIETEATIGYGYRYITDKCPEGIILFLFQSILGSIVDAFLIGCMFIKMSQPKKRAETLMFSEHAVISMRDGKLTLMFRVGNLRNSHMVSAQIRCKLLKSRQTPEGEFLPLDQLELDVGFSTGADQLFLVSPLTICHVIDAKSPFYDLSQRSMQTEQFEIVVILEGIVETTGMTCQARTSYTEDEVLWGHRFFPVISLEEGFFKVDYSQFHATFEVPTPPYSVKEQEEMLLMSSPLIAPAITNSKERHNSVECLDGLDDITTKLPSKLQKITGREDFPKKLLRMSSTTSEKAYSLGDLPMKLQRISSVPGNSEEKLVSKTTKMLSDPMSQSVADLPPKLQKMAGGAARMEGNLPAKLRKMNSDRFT
T1 sequence (P48544 1-419): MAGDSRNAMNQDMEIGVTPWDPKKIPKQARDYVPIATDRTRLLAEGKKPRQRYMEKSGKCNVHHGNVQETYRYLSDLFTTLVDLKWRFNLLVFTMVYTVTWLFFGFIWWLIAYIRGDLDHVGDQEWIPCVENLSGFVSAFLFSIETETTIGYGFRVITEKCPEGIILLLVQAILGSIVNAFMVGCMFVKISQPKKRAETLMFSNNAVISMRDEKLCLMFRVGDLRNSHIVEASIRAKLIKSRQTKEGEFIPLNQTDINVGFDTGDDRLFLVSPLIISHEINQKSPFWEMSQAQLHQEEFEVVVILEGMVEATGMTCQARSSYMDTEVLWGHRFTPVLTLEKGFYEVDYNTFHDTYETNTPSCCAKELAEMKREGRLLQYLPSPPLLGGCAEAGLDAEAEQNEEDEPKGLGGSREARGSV
The conditions noted are these: Jin & Lu, 1999; cited from earlier work.

Data set [4] deals with T2, Kir1 channels (Homo sapiens, UniProt P48048).
T2 sequence (P48048 1-391): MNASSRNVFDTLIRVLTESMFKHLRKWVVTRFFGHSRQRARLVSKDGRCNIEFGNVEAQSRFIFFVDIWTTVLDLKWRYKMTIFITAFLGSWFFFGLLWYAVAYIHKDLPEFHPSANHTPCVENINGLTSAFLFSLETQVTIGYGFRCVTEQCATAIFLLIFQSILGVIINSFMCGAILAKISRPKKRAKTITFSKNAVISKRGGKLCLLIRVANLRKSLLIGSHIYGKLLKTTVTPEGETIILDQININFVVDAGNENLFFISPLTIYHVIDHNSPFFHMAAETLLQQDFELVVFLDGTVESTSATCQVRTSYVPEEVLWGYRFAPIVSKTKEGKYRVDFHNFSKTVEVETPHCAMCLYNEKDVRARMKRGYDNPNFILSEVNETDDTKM
Particulars: Jin & Lu, 1999; cited from earlier work.

Data set [5] has as its target IKr (Homo sapiens, UniProt Q12809). The conditions noted are these: at concentrations of 8 to 30 nM; cited from earlier work.

IKr, sequence (Q12809 whole entry): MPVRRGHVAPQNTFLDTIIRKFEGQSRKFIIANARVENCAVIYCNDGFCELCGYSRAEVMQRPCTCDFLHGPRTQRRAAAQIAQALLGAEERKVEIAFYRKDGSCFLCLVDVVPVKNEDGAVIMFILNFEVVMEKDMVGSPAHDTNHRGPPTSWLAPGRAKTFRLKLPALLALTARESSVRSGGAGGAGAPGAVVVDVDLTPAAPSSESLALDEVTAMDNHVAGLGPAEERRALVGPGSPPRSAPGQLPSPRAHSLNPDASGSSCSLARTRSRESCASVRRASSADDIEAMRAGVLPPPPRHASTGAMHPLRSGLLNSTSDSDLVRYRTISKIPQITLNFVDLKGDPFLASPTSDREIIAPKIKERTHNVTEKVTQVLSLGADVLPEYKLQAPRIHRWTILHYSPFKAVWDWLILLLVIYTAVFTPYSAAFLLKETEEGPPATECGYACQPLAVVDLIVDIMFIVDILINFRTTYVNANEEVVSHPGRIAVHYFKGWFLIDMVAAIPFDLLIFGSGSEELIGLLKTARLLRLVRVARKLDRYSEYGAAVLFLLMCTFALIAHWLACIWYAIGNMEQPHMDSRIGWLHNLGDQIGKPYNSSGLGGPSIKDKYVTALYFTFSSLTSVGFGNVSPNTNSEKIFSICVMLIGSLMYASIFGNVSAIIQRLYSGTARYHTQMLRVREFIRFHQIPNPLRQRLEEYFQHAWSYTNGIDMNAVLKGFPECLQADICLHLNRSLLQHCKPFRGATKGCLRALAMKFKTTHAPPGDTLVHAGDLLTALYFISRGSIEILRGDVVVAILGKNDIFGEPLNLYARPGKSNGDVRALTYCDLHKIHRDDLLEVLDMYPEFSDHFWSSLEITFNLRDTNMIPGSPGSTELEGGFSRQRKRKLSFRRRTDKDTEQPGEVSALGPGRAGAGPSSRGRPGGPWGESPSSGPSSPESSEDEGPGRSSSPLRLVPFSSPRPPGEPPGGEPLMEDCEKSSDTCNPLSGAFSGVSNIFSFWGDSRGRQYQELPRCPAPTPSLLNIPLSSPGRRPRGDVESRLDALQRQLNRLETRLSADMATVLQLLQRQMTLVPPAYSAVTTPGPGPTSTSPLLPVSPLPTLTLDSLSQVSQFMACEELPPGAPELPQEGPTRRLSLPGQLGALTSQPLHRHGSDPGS

Turning to tertiapin-Q, the “effect on time-dependent IKH (in words)” value in data set [1] (200 nM tertiapin-Q, PV cardiomyocyte) is “abolished”. Moreover, the “effect on time-dependent current (in words)” value in data set [1] (1 μM tertiapin-Q, PV cardiomyocytes) is recorded as “eliminated”. The IC50 in data set [1] (at −120 mV, PV cardiomyocytes, read-out: IC50 for time-dependent IKH) is 10 nM and ~10 nM; in data set [3], 8 nM; in data set [4], 2 nM. Also, the mean end-pulse current in data set [1] (at −120 mV, after 200 nM tertiapin-Q (before −2.84±0.89)) is recorded as 0.09±0.01 pA pF^−1. Further, the “decrease of mean instantaneous current” value in data set [2] is recorded as 25%. In addition, in data set [5], the “effect on IKr (in words)” value is listed as “no effect”.
